Experimental data reported in patent publication US20260137700A1, “PHARMACEUTICAL COMBINATION OF PRMT5 INHIBITOR AND DNA DAMAGE-INDUCING SUBSTANCE” (SK Biopharmaceuticals Co., Ltd., priority 2022, published 2026).

Assays:
[1] = tested on: symmetric dimethyl arginine (SDMA); assay: In vivo target inhibition: SDMA ELISA in tumor samples of the Mia PaCa-2 xenograft mouse model; conditions: co-administration with 60 mg/kg gemcitabine
Experimental: Quantitative reduction levels of symmetric dimethyl arginine (SDMA) in tumor samples harvested from a subcutaneous xenograft mouse model of Mia PaCa-2 were measured by enzyme-linked immunosorbent assay (ELISA).
Reagents: Bradford solution (catalog no. 500-0006) was purchased from Bio-rad (USA). SDMA antibody (catalog no. 13222s) was purchased from Cell signaling Technology (USA). SmD3 antibody (catalog no. ap12451a) was purchased from Abgent (USA). Secondary antibody (catalog no. ab6721) and TMB substrate (catalog no. ab210902) were purchased from Abcam (UK).
Experimental procedure: Tumor tissue transplanted into mice was extracted, cells were lysed, and quantified with Bradford solution. […] of protein per sample was diluted with carbonate-bicarbonate buffer, dispensed into a 96-well plate, and reacted at room temperature for 2 hours. After washing three times with phosphate-buffered saline (PBST) containing 0.05% Tween-20, 200 μL of PBST containing 5% bovine serum albumin (BSA) (BSA-PBST) was added, and reacted at room temperature for 2 hours. After washing three times with PBST, 100 μL of SDMA antibody and SmD3 antibody were diluted in BSA-PBST, each was dispensed, and reacted overnight at 4° C. After washing three times with PBST on next day, 100 μL of secondary antibody diluted in BSA-PBST was added, and reacted at room temperature for 1 hour. After washing three times with PBST, 100 μL of TMB substrate was added and reacted at room temperature for 10-20 minutes, and 100 μL of 1N sulfuric acid solution was added to terminate the reaction. Then, the degree of SDMA inhibition by the compound was calculated by measuring the absorbance at 450 nm.

[2] = tested on: cancer cell lines of Table 2 (A549, A549/CR, A549/PR, CAPAN-1, NCI-H1048, MDA-MB-231, Mia PaCa-2, SNU-324, OVCAR3, PA-1, PANC-1, U-87 MG); assay: Cell viability assay (WST) with combination synergy analysis (Bliss score); format: cell-based, human; conditions: combination with various DNA damage inducers, FIGS. 1 to 25; culture ended on days 7 to 9
Experimental: Most cell lines were obtained from the American Type Culture Collection (ATCC) or the Korean Cell Line Bank (KCLB). Combination experiments in cisplatin-resistant and paclitaxel-resistant cell lines were performed at the Asan Preclinical Evaluation center for cancer therapeutiX of Asan Medical Center, Seoul. All cell lines were maintained in appropriate growth medium for the cell line in 100-pi dishes oRT75 (75 cm2) flasks, cultured at 37° C. with 5% CO2, and passaged every 3-4 days. Growth medium conditions and cell line information are listed in Table 2, and the cells were counted using Countess (Invitrogen) to obtain the number of viable cells. Mutation and HRD status by cell type are described in Table 3.
The next day, compound-87 was diluted 1/2 to 1/4 to a concentration of 20 μM to 0.002 μM and treated at a set concentration range, and the co-administered drug was diluted 1/2 to 1/3 to a concentration of 100 μM to 0.00046 μM and treated at a 1:1 (v/v) ratio. Finally, the treatment ratio of compound-87 and the co-administered substance was between 1:20000 and 1:0.00015, and in clinical practice, compound-87: drug to be co-administered can be treated at a ratio of 1:10000 to 1:0.0001.
PANC-1 (wild-type BRCA1/BRCA2) pancreatic cancer cells were treated with compound-87 at concentrations of […], and E7016, a PARP inhibitor as a co-administered agent at concentration of 0.078, 0.156, 0.313, 0.625, 1.25, 2.5, 5, or 10 μM (FIG. 25). Cell culture was terminated on days 7 to 9, and cell viability and synergistic effect were evaluated for each combination of concentrations.
Cell viability was measured by a colorimetric assay using water-soluble tetrazolium salt (WST). […]
Results are normalized to DMSO-treated groups as 100% and expressed as the percent of viable cells upon compound addition. […]
The synergy of each compound was analyzed using Combenefit software (Cambridge Research UK, Cambridge Institute, University of Cambridge, United Kingdom), and synergy was evaluated by using Blliss (Ref: Di Veroli et al., 2016, Bioinformatics 32(18):2866-2868). […]

[3] = tested on: human small cell lung cancer cells NCI-H1048; assay: Subcutaneous xenograft mouse model of NCI-H1048 small cell lung cancer cells, tumor growth inhibition; format: in vivo; conditions: day 23; cisplatin alone, 4 mg/kg intraperitoneally once a week
Experimental: For in vivo efficacy study in a subcutaneous xenograft mouse model of human small cell lung cancer cells NCI-H1048, co-administration of compound-87 as a PRMT5 inhibitor according to an example of the present invention and cisplatin as an alkylating agent of a chemotherapeutic agent, was performed. To produce a small cell lung cancer xenograft model, 10 million of NCI-H1048 cells were injected subcutaneously into the right flank of female nude mice, and tumor growth was monitored.
To evaluate the anticancer effect, when the tumor volume reached approximately 162 mm^3 on average, the mice were divided into four groups. The all group included a solvent-treated group (Vehicle 1 (Compound-87)+Vehicle 2 (cisplatin) group), a Compound-87 monotherapy group (50 mg/kg), a cisplatin monotherapy group (4 mg/kg), and combination therapy group of Compound-87 and cisplatin. The Compound-87 treatment group was administered orally on a 3-day administration/4-day non-administration schedule, and cisplatin was administered intraperitoneally once a week for 22 days (Day 1-Day 23). All mice were euthanized on Day 22 (Day 23).

[4] = tested on: CTG-1932, a human non-small cell lung cancer patient-derived cell line; assay: Subcutaneous xenograft mouse model of patient-derived CTG-1932 non-small cell lung cancer, tumor growth inhibition; format: in vivo; conditions: day 9; paclitaxel 20 mg/kg i.p. once a week, single treatment; significant
Experimental: For in vivo efficacy studies in a subcutaneous xenograft mouse model of CTG-1932, a human non-small cell lung cancer patient-derived cell line, combination therapy of compound-87 as a PRMT5 inhibitor according to one example of the present invention and with paclitaxel as a chemotherapy agent, was performed at Champions Oncology (USA).
To produce a non-small cell lung cancer xenograft model, CTG-1932 tumor stock was grown and harvested from primary mice and then transplanted subcutaneously into the left flank of immunocompromised female mice as a 5×5×5 mm^3 tumor fragment. When the tumor volume reached approximately 150-300 mm^3, the mice were separated into four groups of 10 each. All group consisted of a solvent-treated group (vehicle group), a compound-87 monotherapy group (50 mg/kg, oral administration, 3 days on/4 days off), a paclitaxel monotherapy group (20 mg/kg, intraperitoneal administration once a week), and combination treatment group of compound-87 (50 mg/kg, oral administration, 3 days on/4 days off) and paclitaxel (20 mg/kg, intraperitoneal administration once a week). tumor volume and body weight were measured twice a week.

glioblastoma = glioblastoma chemotherapy; cited from earlier work

For CC(=O)N1CCC(Oc2ccc3c(c2)OCCN(C[C@H](O)CN2CCc4ccccc4C2)C3=O)CC1 [Compound-78, 8-[(1-acetyl-4-piperidyl)oxy]-4-[(2R)-3-(3,4-dihydro-1H-isoquinolin-2-yl)-2-hydroxy-propyl]-2,3-dihydro-1,4-benzoxazepin-5-one], the “SDMA amount in tumor samples compared to the vehicle group” value ([1]; 25 mg/kg) was 33.5%, the “SDMA amount in tumor samples compared to the vehicle group” value ([1]; 50 mg/kg) was 24.9% and the inhibition at 25 mg/kg ([1]; Mus musculus, MIA PaCa-2, 25 mg/kg) was 66.5%. For the same compound, the inhibition at 50 mg/kg ([1]; Mus musculus, MIA PaCa-2, 50 mg/kg) was 75.1%.
In the case of CN1CCC(Oc2ccc3c(c2)OC(C)(C)CN(C[C@H](O)CN2CCc4ccccc4C2)C3=O)CC1 [Compound-112, 4-[(2R)-3-(3,4-dihydro-1H-isoquinolin-2-yl)-2-hydroxy-propyl]-2,2-dimethyl-8-[(1-methyl-4-piperidyl)oxy]-3H-1,4-benzoxazepin-5-one], the “inhibition of cell viability, combination treatment compared to single agent” value [2] is reported as “enhanced inhibition effects of cell viability”.
In the case of O=C1c2ccc(O[C@@H]3CCN(C4COC4)C3)cc2OCCN1C[C@H](O)CN1CCc2ccccc2C1 [Compound-271, 4-[(2R)-3-(3,4-dihydro-1H-isoquinolin-2-yl)-2-hydroxy-propyl]-8-[(3R)-1-(oxetan-3-yl)pyrrolidin-3-yl]oxy-2,3-dihydro-1,4-benzoxazepin-5-one], the “inhibition of cell viability, combination treatment compared to single agent” value [2] is reported as “enhanced inhibition effects of cell viability”.
For N.N.[Cl][Pt][Cl] [cisplatin, azane; dichloroplatinum, reference compound], the “tumor growth inhibition rate” value [3] was 62.9%.
With CC(=O)O[C@H]1C(=O)[C@@]2(C)[C@H]([C@H](OC(=O)c3ccccc3)[C@]3(O)C[C@H](OC(=O)[C@H](O)[C@@H](NC(=O)c4ccccc4)c4ccccc4)C(C)=C1C3(C)C)[C@]1(OC(C)=O)CO[C@@H]1C[C@@H]2O [paclitaxel, [(1S,2S,3R,4S,7R,9S,10S,12R,15S)-4,12-diacetyloxy-15-[(2R,3S)-3-benzamido-2-hydroxy-3-phenylpropanoyl]oxy-1,9-dihydroxy-10,14,17,17-tetramethyl-11-oxo-6-oxatetracyclo[11.3.1.03,10.04,7]heptadeca-13-en-2-yl]benzoate, reference compound] the “tumor growth inhibition compared to the solvent-treated group” value [4] was 75%.
In the case of Cn1nnc2c(C(N)=O)ncn2c1=O [temozolomide, 3-methyl-4-oxoimidazo[5,1-d][1,2,3,5]tetrazine-8-carboxamide], the average survival (glioblastoma) is listed as ≤ 14.5 months.
